{"source": "patent US9624211B2", "about": "“Anti-cancer compounds” (Board of Regents, The University of Texas System, priority 2013, dated 2017)", "key": {"[1]": {"system": "Skp2 Trp97Ala and Asp98Ala mutants binding to Skp1", "assay": "In vitro Skp2-Skp1 binding assay with Skp2 mutants", "settings": "FIG. 2D", "experimental": "For in vitro GST-Skp1 and Skp2 interaction, GST-Skp1 proteins purified from the bacterial lysates of BL21 competent cells transformed with pGEX-4X1-Skp1 using the Glutathione-Agarose beads according to the manufacturer's standard procedures. The GST-Skp1 proteins bound to glutathione Sepharose beads (Amersham Biosciences) were then incubated with the in vitro translated [35^S]-Skp2 for 2 hours at 4° C. in the interaction buffer with or without compound #25 (20 mM HEPES, PH 7.9, 150 mM KCl. 5 mM EDTA, 0.5 mM DTT, 0.1% (v/v) Nonidet p-40, 0.1% (w/v) BSA, 1 mM PMSF, and 10% Glycerol), washed by the NETN buffer (20 mM Tris, pH 8.0, 100 mM NaCl, 6 mM MgCl2, 1 mM EDTA, 0.5% Nonidet P-40, 1 mM DTT, 8% glycerol, 1 mM PMSF) 4 times, and subjected to 8% SDS-PAGE, followed by autoradiography."}, "[2]": {"target": "T1, Skp2 Trp127Ala mutant (Homo sapiens, UniProt Q13309, W127A)", "T1 construct": "expressed in transfected cells; host or cells: 293T", "T1 sequence (Q13309 whole entry W127A)": "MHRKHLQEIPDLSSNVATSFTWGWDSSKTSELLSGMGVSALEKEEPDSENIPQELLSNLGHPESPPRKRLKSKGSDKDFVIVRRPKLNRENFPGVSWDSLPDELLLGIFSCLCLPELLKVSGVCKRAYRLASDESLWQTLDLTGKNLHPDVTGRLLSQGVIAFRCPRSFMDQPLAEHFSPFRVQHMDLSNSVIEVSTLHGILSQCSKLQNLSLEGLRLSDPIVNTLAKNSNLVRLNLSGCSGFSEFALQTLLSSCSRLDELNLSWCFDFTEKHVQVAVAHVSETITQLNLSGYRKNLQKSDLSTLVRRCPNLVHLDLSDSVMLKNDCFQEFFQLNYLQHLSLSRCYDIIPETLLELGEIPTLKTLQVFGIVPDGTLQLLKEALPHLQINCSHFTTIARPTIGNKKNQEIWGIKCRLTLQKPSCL", "assay": "In vivo p27 ubiquitination assay, Skp2 Trp127Ala mutant", "assay_type": "cell-based", "experimental": "In vivo and in vitro ubiquitination assays were performed as described with modification (Lin et al., 2009; Yang et al., 2009). For in vitro ubiquitination assay, recombinant GST-Akt proteins were expressed, purified and eluted from the bacterial lysates of BL21 competent cells. Flag-Skp2 SCF complex were expressed in 293T cells, immunoprecipitated by anti-Flag antibody, and eluted from Protein A/G beads using Flag peptides according to manufacturers' standard procedures. Purified GST-Akt and Flag-SCF proteins were incubated for 3 h at 37° C. in the absence and presence of Skp2 inhibitor. After incubation, protein mixtures were diluted in E1A Buffer and the supernatant fluid was precleared with Protein A/G beads for 1 h, and immunoprecipitated overnight with anti-Flag antibody, after which Protein A/G beads were added for an additional 1 h. Beads were washed 4 times with E1A Buffer. Proteins were eluted in SDS-sample buffer and subjected to immunoblotting analysis. For in vivo ubiquitination assay, 293T cells were transfected with the indicated plasmids and cultured in the absence or presence of Skp2 inhibitor for 48 h. 6 h before harvest, cells were cultured in the presence of MG132. After cell harvest, cells were lysed by the denatured buffer (6M guanidine-HCl, 0.1M Na2HPO4/NaH2PO4, 10 mM imidazole). […]"}}}
{"smiles": "CCc1cc2c(=O)c(-c3nc4ccccc4s3)coc2c(CN2CCCCC2)c1O", "note": "[compound #25, 3-(1,3-benzothiazol-2-yl)-6-ethyl-7-hydroxy-8-(1-piperidinylmethyl)-4H-chromen-4-one]", "values": [{"measurement": "binding of Skp2 Trp97Ala and Asp98Ala mutants to Skp1", "setting": "[1]", "value": "unable to inhibit"}, {"measurement": "E3 ligase activity of Skp2 Trp127Ala mutant", "setting": "[2]", "value": "abrogated E3 ligase activity"}]}
